From ChEMBL document CHEMBL1139797, “Conversion of the LXR-agonist TO-901317--from inverse to normal modulation of gamma-secretase by addition of a carboxylic acid and a lipophilic anchor” (Bioorg Med Chem Lett, 2007)
Calls of active or inactive are those of the source. No cut-off for these calls is given here.

Key:
Type in all cases: cell-based
Gamma-secretase [1] = experiment: Effect on gamma-secretase activity in human H4 cells expressing APP695 assessed as increase in Amyloid beta38 formation by LPECL assay
H4 = experiment: Cytotoxicity against human H4 cells assessed as reduction of viability
Gamma-secretase [2] = experiment: Effect on gamma-secretase activity in human H4 cells expressing APP695 assessed as reduction of Amyloid beta-38 formation by LPECL assay
Gamma-secretase [3] = experiment: (§1) Effect on gamma-secretase activity in human H4 cells expressing APP695 assessed as reduction of Amyloid beta-40 formation LPECL assay
Gamma-secretase [4] = experiment: Effect on gamma-secretase activity in human H4 cells expressing APP695 assessed as increase in Amyloid beta-42 formation LPECL assay
Gamma-secretase [5] = experiment: Effect on gamma-secretase activity in human H4 cells expressing APP695 assessed as reduction of Amyloid beta-42 formation LPECL assay
[6] = biological target: Gamma-secretase (Homo sapiens) (UniProt Q96BI3+Q9NZ42+Q8WW43+P49768+Q92542+P49810); experiment: as §1

Compound	EC50 (Gamma-secretase [1]) [µM]	Activity (H4) [µM]	IC50 (Gamma-secretase [2]) [µM]	IC50 (Gamma-secretase [3]) [µM]	EC50 (Gamma-secretase [4]) [µM]	IC50 (Gamma-secretase [5]) [µM]	Activity [6]
CC(C)c1cc(C(C)C)c(S(=O)(=O)n2c3ccccc3c3ccc(OCC(=O)O)cc32)c(C(C)C)c1	7.8	20	–	–	–	–	–
CC(C(=O)OCc1ccccc1)c1ccc2c3cc(Cl)ccc3n(S(=O)(=O)c3cc(C(F)(F)F)cc(C(F)(F)F)c3)c2c1 (stereo not given)	–	> 40	> 20	> 40	> 20	–	–
CC(C)(C)OC(=O)COc1ccc(NS(=O)(=O)c2cc(C(F)(F)F)cc(C(F)(F)F)c2)cc1	–	> 40	> 40	> 40	10.6	–	–
CCCCCCCCN(c1ccc(OCC(=O)OC(C)(C)C)cc1)S(=O)(=O)c1cc(C(F)(F)F)cc(C(F)(F)F)c1	–	> 40	13.3	> 40	6.2	–	–
CCCCCCCCN(c1ccc(OCC(=O)O)cc1)S(=O)(=O)c1cc(C(F)(F)F)cc(C(F)(F)F)c1	23.7	40	–	> 40	–	19.6	–
CC(C)c1cc(C(C)C)c(S(=O)(=O)n2c3ccc(Cl)cc3c3ccc(C(C)C(=O)O)cc32)c(C(C)C)c1 (stereo not given)	9.3	40	–	–	–	–	–
O=S(=O)(c1ccccc1)N(CC(F)(F)F)c1ccc(C(O)(C(F)(F)F)C(F)(F)F)cc1 [T091317]	–	–	4.5	> 40	3.6	–	–
Cc1ccc(S(=O)(=O)n2c3ccc(Cl)cc3c3ccc(C(C)C(=O)OCc4ccccc4)cc32)cc1 (stereo not given)	–	> 40	20	–	20	–	inactive
CCCCCCCCCCn1c2ccc(Cl)cc2c2ccc(C(C)C(=O)O)cc21 (stereo not given)	5.8	40	–	–	–	–	–
CCCCCCCCCCn1c2ccccc2c2ccc(OCC(=O)O)cc21	–	> 40	–	–	–	–	–
